The results in this text go back to US12497365B2, “4-pyridinyl formamide compound or derivative thereof, preparation method therefor, herbicidal composition and use thereof” (Qingdao Kingagroot Chemical Compound Co., Ltd., priority 2019, dated 2025).

Common to all, as to test: Weeding effect in post-emergence stage
Assay type in all cases: in vivo
What all share (details): active ingredient 2000 g/ha, 3 weeks after application, fresh weight control rate

Experiment [1] relates to Amaranthus retroflexus L. A digest of the protocol:
(§1)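 Weeds sown in soil-filled pots under 0.5-2 cm cover were grown in a greenhouse and sprayed at the 2-3 leaf stage, 2 weeks after sowing. Compounds in acetone with Tween 80 and 1.5 liter/ha methyl oleate concentrate were applied at 2000, 1000, 500, 250 or 125 g/ha. Fresh weight control rate was scored after 3 weeks.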

For a further experiment, the system named is Abutilon theophrasti. The method, boiled down: as §1
A further experiment concerns Chenopodium album. The method, boiled down:
as §1

Another experiment has as its system Descurainia sophia. A digest of the protocol:
as §1

For the compound `Cn1nnnc1NC(=O)c1ccnc(-c2cccc3c2oc2ccccc23)c1Cl` [Compound 1-116], the “Weeding effect, activity level (growth control rate), Amaranthus retroflexus L.” value (“Weeding effect … Amaranthus retroflexus L.” below) in experiment [1] is given as 5 (Level 5: growth control rate is above 85%). Besides, the “Weeding effect, activity level (growth control rate), Abutilon theophrasti” value (from here on “Weeding effect … Abutilon theophrasti”) with Abutilon theophrasti is recorded as 5 (Level 5: growth control rate is above 85%). For the same compound, the “Weeding effect, activity level (growth control rate), Chenopodium album” value (from here on “Weeding effect … Chenopodium album”) in the experiment with Chenopodium album is given as 5 (Level 5: growth control rate is above 85%). For the same compound, the “Weeding effect, activity level (growth control rate), Descurainia sophia” value (shortened to “Weeding effect … Descurainia sophia”) in the experiment with Descurainia sophia is recorded as 5 (Level 5: growth control rate is above 85%).
Turning to `Cn1nnnc1NC(=O)c1ccnc(-c2ccc3c(c2)oc2ccccc23)c1Cl` [Compound 1-117], the “Weeding effect … Amaranthus retroflexus L.” value in experiment [1] is 5 (Level 5: growth control rate is above 85%). For the same compound, the “Weeding effect … Abutilon theophrasti” value with Abutilon theophrasti is recorded as 5 (Level 5: growth control rate is above 85%). In the experiment with Chenopodium album, the “Weeding effect … Chenopodium album” value is on record as 5 (Level 5: growth control rate is above 85%). In addition, in the experiment with Descurainia sophia, the “Weeding effect … Descurainia sophia” value is listed as 5 (Level 5: growth control rate is above 85%).
Regarding `Cn1nnnc1NC(=O)c1ccnc(-c2ccc3c(c2)sc2ccccc23)c1Cl` [Compound 1-118], in experiment [1], the “Weeding effect … Amaranthus retroflexus L.” value is 5 (Level 5: growth control rate is above 85%). Further, the “Weeding effect … Abutilon theophrasti” value with Abutilon theophrasti is listed as 5 (Level 5: growth control rate is above 85%). Further, in the experiment with Chenopodium album, the “Weeding effect … Chenopodium album” value is 5 (Level 5: growth control rate is above 85%). Further, the “Weeding effect … Descurainia sophia” value in the experiment on Descurainia sophia is 5 (Level 5: growth control rate is above 85%).
For `Cn1nnnc1NC(=O)c1ccnc(-c2ccccn2)c1Cl` [Compound 1-119], the “Weeding effect … Amaranthus retroflexus L.” value in experiment [1] is reported as 5 (Level 5: growth control rate is above 85%). Further, the “Weeding effect … Abutilon theophrasti” value with Abutilon theophrasti is reported as 5 (Level 5: growth control rate is above 85%). Moreover, in the experiment on Chenopodium album, the “Weeding effect … Chenopodium album” value is on record as 5 (Level 5: growth control rate is above 85%). Further, the “Weeding effect … Descurainia sophia” value with Descurainia sophia was 5 (Level 5: growth control rate is above 85%).
For the compound `Cn1nnnc1NC(=O)c1ccnc(-c2cccc(C#N)n2)c1Cl` [Compound 1-120], the “Weeding effect … Amaranthus retroflexus L.” value in experiment [1] is recorded as 5 (Level 5: growth control rate is above 85%). In addition, the “Weeding effect … Abutilon theophrasti” value in the experiment on Abutilon theophrasti is 5 (Level 5: growth control rate is above 85%). Further, the “Weeding effect … Chenopodium album” value with Chenopodium album was 5 (Level 5: growth control rate is above 85%). The “Weeding effect … Descurainia sophia” value in the experiment with Descurainia sophia is reported as 5 (Level 5: growth control rate is above 85%).
Turning to `Cn1nnnc1NC(=O)c1ccnc(-c2ccc(C#N)cn2)c1Cl` [Compound 1-121], the “Weeding effect … Amaranthus retroflexus L.” value in experiment [1] is 5 (Level 5: growth control rate is above 85%). In addition, the “Weeding effect … Abutilon theophrasti” value in the experiment with Abutilon theophrasti was 5 (Level 5: growth control rate is above 85%). The “Weeding effect … Chenopodium album” value with Chenopodium album is recorded as 5 (Level 5: growth control rate is above 85%). The “Weeding effect … Descurainia sophia” value with Descurainia sophia was 5 (Level 5: growth control rate is above 85%).
For `Cn1nnnc1NC(=O)c1ccnc(-c2cc(C#N)ccn2)c1Cl` [Compound 1-122], the “Weeding effect … Amaranthus retroflexus L.” value in experiment [1] is on record as 5 (Level 5: growth control rate is above 85%). Further, in the experiment on Abutilon theophrasti, the “Weeding effect … Abutilon theophrasti” value is given as 5 (Level 5: growth control rate is above 85%). Besides, the “Weeding effect … Chenopodium album” value in the experiment with Chenopodium album is 5 (Level 5: growth control rate is above 85%). Further, in the experiment on Descurainia sophia, the “Weeding effect … Descurainia sophia” value is on record as 5 (Level 5: growth control rate is above 85%).
`Cn1nnnc1NC(=O)c1ccnc(-c2ccc(F)cn2)c1Cl` [Compound 1-123]: the “Weeding effect … Amaranthus retroflexus L.” value in experiment [1] is 5 (Level 5: growth control rate is above 85%). Also, the “Weeding effect … Abutilon theophrasti” value with Abutilon theophrasti is listed as 5 (Level 5: growth control rate is above 85%). Further, in the experiment on Chenopodium album, the “Weeding effect … Chenopodium album” value is listed as 5 (Level 5: growth control rate is above 85%). Moreover, the “Weeding effect … Descurainia sophia” value in the experiment on Descurainia sophia is 5 (Level 5: growth control rate is above 85%).
As for `Cn1nnnc1NC(=O)c1ccnc(-c2cccnc2)c1Cl` [Compound 1-124], in experiment [1], the “Weeding effect … Amaranthus retroflexus L.” value is on record as 5 (Level 5: growth control rate is above 85%). In addition, the “Weeding effect … Abutilon theophrasti” value in the experiment with Abutilon theophrasti is given as 5 (Level 5: growth control rate is above 85%). Moreover, the “Weeding effect … Chenopodium album” value with Chenopodium album is reported as 5 (Level 5: growth control rate is above 85%). Also, the “Weeding effect … Descurainia sophia” value with Descurainia sophia is on record as 5 (Level 5: growth control rate is above 85%).
Take `Cc1ccncc1-c1nccc(C(=O)Nc2nnnn2C)c1Cl` [Compound 1-125]: the “Weeding effect … Amaranthus retroflexus L.” value in experiment [1] is recorded as 5 (Level 5: growth control rate is above 85%). For the same compound, in the experiment with Abutilon theophrasti, the “Weeding effect … Abutilon theophrasti” value is 5 (Level 5: growth control rate is above 85%). In the experiment on Chenopodium album, the “Weeding effect … Chenopodium album” value is listed as 5 (Level 5: growth control rate is above 85%). In addition, in the experiment on Descurainia sophia, the “Weeding effect … Descurainia sophia” value was 5 (Level 5: growth control rate is above 85%).
Regarding `Cc1cncc(-c2nccc(C(=O)Nc3nnnn3C)c2Cl)c1` [Compound 1-126], in experiment [1], the “Weeding effect … Amaranthus retroflexus L.” value was 5 (Level 5: growth control rate is above 85%). For the same compound, in the experiment with Abutilon theophrasti, the “Weeding effect … Abutilon theophrasti” value is recorded as 5 (Level 5: growth control rate is above 85%). Further, the “Weeding effect … Chenopodium album” value in the experiment with Chenopodium album is reported as 5 (Level 5: growth control rate is above 85%). Also, the “Weeding effect … Descurainia sophia” value in the experiment with Descurainia sophia is on record as 5 (Level 5: growth control rate is above 85%).
Turning to `Cn1nnnc1NC(=O)c1ccnc(-c2cccnc2F)c1Cl` [Compound 1-127], the “Weeding effect … Amaranthus retroflexus L.” value in experiment [1] is listed as 5 (Level 5: growth control rate is above 85%). The “Weeding effect … Abutilon theophrasti” value in the experiment with Abutilon theophrasti is 5 (Level 5: growth control rate is above 85%). For the same compound, the “Weeding effect … Chenopodium album” value with Chenopodium album is reported as 5 (Level 5: growth control rate is above 85%). Further, the “Weeding effect … Descurainia sophia” value in the experiment on Descurainia sophia is listed as 5 (Level 5: growth control rate is above 85%).
In the case of `Cn1nnnc1NC(=O)c1ccnc(-c2cncc(F)c2)c1Cl` [Compound 1-128], the “Weeding effect … Amaranthus retroflexus L.” value in experiment [1] was 5 (Level 5: growth control rate is above 85%). Also, in the experiment with Abutilon theophrasti, the “Weeding effect … Abutilon theophrasti” value is reported as 5 (Level 5: growth control rate is above 85%). The “Weeding effect … Chenopodium album” value in the experiment on Chenopodium album was 5 (Level 5: growth control rate is above 85%). Besides, the “Weeding effect … Descurainia sophia” value in the experiment on Descurainia sophia is 5 (Level 5: growth control rate is above 85%).
Regarding `Cn1nnnc1NC(=O)c1ccnc(-c2ccc(Cl)nc2)c1Cl` [Compound 1-129], in experiment [1], the “Weeding effect … Amaranthus retroflexus L.” value is recorded as 5 (Level 5: growth control rate is above 85%). The “Weeding effect … Abutilon theophrasti” value with Abutilon theophrasti is recorded as 5 (Level 5: growth control rate is above 85%). Further, the “Weeding effect … Chenopodium album” value in the experiment on Chenopodium album is 5 (Level 5: growth control rate is above 85%). Besides, the “Weeding effect … Descurainia sophia” value with Descurainia sophia is recorded as 5 (Level 5: growth control rate is above 85%).
